In patent publication US20220324865A1 (Bayer Aktiengesellschaft, priority 2018, published 2022) one finds IC50 data, which are given here for 26 molecules.

Structures can show the parent of a compound that is named as a salt.

For this test, the target named is T1, human EP3 receptor (Homo sapiens, UniProt P43115).
T1 construct: expressed in transfected cells; host or cells: CHO K1 (Chinese Hamster Ovary), stably co-transfected with Galpha16 and mitochondrial clytin
T1 sequence (P43115 1-390): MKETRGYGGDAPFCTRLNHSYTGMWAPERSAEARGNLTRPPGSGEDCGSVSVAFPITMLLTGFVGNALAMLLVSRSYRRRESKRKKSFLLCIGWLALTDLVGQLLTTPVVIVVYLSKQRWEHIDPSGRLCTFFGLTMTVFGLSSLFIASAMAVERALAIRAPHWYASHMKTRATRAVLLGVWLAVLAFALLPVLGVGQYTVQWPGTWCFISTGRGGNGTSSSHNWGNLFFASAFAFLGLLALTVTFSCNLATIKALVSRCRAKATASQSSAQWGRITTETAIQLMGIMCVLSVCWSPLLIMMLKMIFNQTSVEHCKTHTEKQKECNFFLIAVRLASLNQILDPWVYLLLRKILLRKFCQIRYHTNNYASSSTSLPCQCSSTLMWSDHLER
Description: Cellular in vitro assay for determining EP3 receptor activity (human EP3 cell line, sulprostone-stimulated calcium luminescence). Conditions: CHO cells expressing human EP3 and mitochondrial Clytin; antagonist mode, sulprostone at EC50; read-out: EP3 CHO mtCLY ANTAG IC50. The format is cell-based. The essentials:
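Antagonist activity was measured as inhibition of the luminescent calcium signal elicited by EC50 sulprostone, following 10 min compound pretreatment. The cell line was recombinant CHO K1 co-expressing human EP3, Gα16 and the photoprotein Clytin, reconstituted with coelenterazine.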
One may read the IC50 as the midpoint of a concentration-inhibition curve. In the case of `C[C@@H](NC(=O)c1cc2c(=O)[nH]c(-c3ccc4c(c3)N(C)CCO4)cn2n1)c1ccc(F)cc1` [Example 1-102, N-[(1R)-1-(4-Fluorophenyl)ethyl]-6-(4-methyl-3,4-dihydro-2H-1,4-benzoxazin-6-yl)-4-oxo-4,5-dihydropyrazolo[1,5-a]pyrazin-2-carboxamide], the IC50 was 1.35 nM.
Under `COc1ccc(CNC(=O)c2cc3c(=O)[nH]c(-c4ccc5ccccc5c4)cn3n2)cc1OC` [Example 1-103, N-(3,4-Dimethoxybenzyl)-6-(2-naphthyl)-4-oxo-4,5-dihydropyrazolo[1,5-a]pyrazin-2-carboxamide] stands 1.87 nM; under `COc1ccc(C(C)NC(=O)c2cc3c(=O)[nH]c(-c4ccc5ccccc5c4)cn3n2)cn1` (centres unmarked) [Example 1-104, N-[1-(6-Methompyridin-3-yl)ethyl]-6-(2-naphthyl)-4-oxo-5H-pyrazolo[1,5-a]pyrazine-2-carboxamide], 2.26 nM.
Under `C[C@@H](NC(=O)c1cc2c(=O)[nH]c(-c3ccc4ccccc4n3)cn2n1)c1ccc(F)cc1` [Example 1-105, N-[(1R)-1-(4-Fluorophenyl)ethyl]-4-oxo-6-(quinolin-2-yl)-4,5-dihydropyrazolo[1,5-a]pyrazine-2-carboxamide] stands 1.48 nM; under `COc1ccc(C(C)NC(=O)c2cc3c(=O)[nH]c(-c4ccc5ccccc5n4)cn3n2)cn1` (centres unmarked) [Example 1-106, N-[1-(6-Methoxypyridin-3-yl)ethyl]-4-oxo-6-(quinolin-2-yl)-4,5-dihydropyrazolo[1,5-a]pyrazine-2-carboxamide], 5.65 nM.
Under `COc1ccc(C(C)NC(=O)c2cc3c(=O)[nH]c(-c4ccc(Cl)c(C)c4)cn3n2)cn1` (centres unmarked) [Example 1-107, 6-(4-Chloro-3-methylphenyl)-N-[1-(6-methoxypyridin-3-yl)ethyl]-4-oxo-4,5-dihydropyrazolo[1,5-a]-pyrazine-2-carboxamide] stands 3.97 nM.
For the molecule `COc1ccc([C@@H](C)NC(=O)c2cc3c(=O)[nH]c(-c4ccc5c(c4F)OCCO5)cn3n2)cn1` [Example 1-108, 6-(5-Fluoro-2,3-dihydro-1,4-benzodioxin-6-yl)-N-[(1R)-1-(6-methoxpyridin-3-yl)ethyl]-4-oxo-4,5-dihydropyrazolo[1,5-a]pyrazine-2-carboxamide], the IC50 amounted to 2.5 nM.
In the case of `CN(C)C[C@@H](NC(=O)c1cc2c(=O)[nH]c(-c3ccc4c(c3F)OCCO4)cn2n1)c1ccccc1` [Example 1-109, N-[(1S)-2-(Dimethylamino)-1-phenylethyl]-6-(5-fluoro-2,3-dihydro-1,4-benzodioxin-6-yl)-4-oxo-4,5-dihydropyrazolo[1,5-a]pyrazine-2-carboxamide], the concentration for half-maximal inhibition (IC50) is 5.97 nM.
Under `O=C(NC(c1ccccc1)C(F)F)c1cc2c(=O)[nH]c(-c3ccc4c(c3F)OCCO4)cn2n1` (centres unmarked) [Example 1-110, N-(2,2-Difluoro-1-phenylethyl)-6-(5-fluoro-2,3-dihydro-1,4-benzodioxin-6-yl)-4-oxo-4,5-dihydro-pyrazolo[1,5-a]pyrazine-2-carboxamide] stands 1.01 nM; under `COc1ccc([C@@H](C)NC(=O)c2cc3c(=O)[nH]c(-c4ccc5c(c4F)OCCO5)c(F)n3n2)cn1` [Example 1-111, 7-Fluoro-6-(5-fluoro-2,3-dihydro-1,4-benzodioxin-6-yl)-N-[(1R)-1-(6-methoxypyridin-3-yl)ethyl]-4-oxo-4,5-dihydropyrazolo[1,5-a]pyrazine-2-carboxamide], 8.8 nM.
Under `C[C@@H](NC(=O)c1cc2c(=O)[nH]c(-c3ccc4c(c3)COCC4)cn2n1)c1ccc(F)cc1` [Example 1-112, 6-(3,4-Dihydro-1H-2-benzopyran-7-yl)-N-[(1R)-1-(4-fluorophenyl)ethyl]-4-oxo-4,5-dihydropyrazolo[1,5-a]pyrazine-2-carboxamide] stands 3.35 nM; under `Cc1cccc2ncc(-c3cn4nc(C(=O)N[C@H](CCO)c5ccc(F)cc5)cc4c(=O)[nH]3)cc12` [Example 1-113, N-[(1R)-1-(4-Fluorophenyl)-3-hydroxypropyl]-6-(5-methylquinolin-3-yl)-4-oxo-4,5-dihydropyrazolo[1,5-a]pyrazine-2-carboxamide], 3.8 nM; under `Cc1cccc2ncc(-c3cn4nc(C(=O)N[C@H](CCO)c5ccccc5)cc4c(=O)[nH]3)cc12` [Example 1-114, N-[(1R)-3-Hydroxy-1-phenylpropyl]-6-(5-methylquinolin-3-yl)-4-oxo-4,5-dihydropyrazolo[1,5-a]-pyrazine-2-carboxamide], 3.15 nM.
Under `CCN(CCO)CC(NC(=O)c1cc2c(=O)[nH]c(-c3cnc4cccc(C)c4c3)cn2n1)c1ccccc1` (centres unmarked) [Example 1-115, N-[2-[Ethyl(2-hydroxyethyl)amino]-1-phenylethyl]-6-(5-methyl-3-quinolyl)-4-oxo-5H-pyrazolo-[1,5-a]pyrazine-2-carboxamide] stands 3.4 nM; under `CN1CCC(NC(=O)c2nn3cc(-c4ccc5ccccc5c4)[nH]c(=O)c3c2C(F)(F)F)(c2ccc(F)cc2)CC1` [Example 1-116, N-[4-(4-Fluorophenyl)-1-methylpiperidin-4-yl]-6-(naphthalen-2-yl)-4-oxo-3-(trifluoromethyl)-4,5-dihydropyrazolo[1,5-a]pyrazine-2-carboxamide], 9.55 nM.
For the molecule `CC(NC(=O)c1nn2cc(-c3ccc4ccccc4c3)[nH]c(=O)c2c1C(F)(F)F)c1cnc(OCC(F)(F)F)cn1` (centres unmarked) [Example 1-117, 6-(2-Naphthyl)-4-oxo-N-[1-[5-(2,2,2-trifluoroethoxy)pyrazin-2-yl]ethyl]-3-(trifluoromethyl)-5H-pyrazolo[1,5-a]pyrazine-2-carboxamide], the concentration for half-maximal inhibition (IC50) was 1.38 nM.
Under `CC(COc1cc(Cl)cc(Cl)c1)NC(=O)c1nn2cc(-c3ccc4ccccc4c3)[nH]c(=O)c2c1C(F)(F)F` (centres unmarked) [Example 1-118, N-[2-(3,5-Dichlorophenoxy)-1-methylethyl]-6-(2-naphthyl)-4-oxo-3-(trifluoromethyl)-5H-pyrazolo-[1,5-a]pyrazine-2-carboxamide] stands 3.95 nM.
Under `CN1CC(NC(=O)c2nn3cc(-c4ccc5ccccc5c4)[nH]c(=O)c3c2Cl)(c2ccc(F)cc2)C1` [Example 1-119, 3-Chloro-N-[3-(4-fluorophenyl)-1-methylazetidin-3-yl]-6-(naphthalen-2-yl)-4-oxo-4,5-dihydropyrazolo[1,5-a]pyrazine-2-carboxamide] stands 3.3 nM.
On to `O=C(N[C@H](CCO)c1ccc(F)cc1)c1nn2cc(-c3ccc4ccccc4c3)[nH]c(=O)c2c1Cl` [Example 1-120, 3-Chloro-N-[(1R)-1-(4-fluorophenyl)-3-hydroxypropyl]-6-(naphthalen-2-yl)-4-oxo-4,5-dihydropyrazolo[1,5-a]pyrazine-2-carboxamide], for which the IC50 is 0.495 nM.
The result for `Cc1cc(-c2cn3nc(C(=O)N[C@H](CCO)c4ccc(F)cc4)cc3c(=O)[nH]2)ccc1C(F)(F)F` [Example 1-121, N-[(1R)-1-(4-Fluorophenyl)-3-hydroxpropyl]-6-[3-methyl-4-(trifluoromethyl)phenyl]-4-oxo-4,5-dihydropyrazolo[1,5-a]pyrazine-2-carboxamide] reads 4.18 nM.
With `Cc1ccc(-c2[nH]c(=O)c3c(C(F)(F)F)c(C(=O)N[C@H](CCO)c4ccc(F)cc4)nn3c2C)cc1C` [Example 1-122, 6-(3,4-Dimethylphenyl)-N-[(1R)-1-(4-fluorophenyl)-3-hydroxpropyl]-7-methyl-4-oxo-3-(trifluoromethyl)-4,5-dihydropyrazolo[1,5-a]pyrazine-2-carboxamide], the half-maximal inhibitory concentration (IC50) amounted to 4.13 nM.
The result for `Cc1ccc(-c2[nH]c(=O)c3c(C(F)(F)F)c(C(=O)N[C@H](C)c4ccc(F)cc4)nn3c2C)cc1C` [Example 1-123, 6-(3,4-Dimethylphenyl)-N-[(1R)-1-(4-fluorophenyl)ethyl]-7-methyl-4-oxo-3-(trifluoromethyl)-4,5-dihydropyrazolo[1,5-a]pyrazine-2-carboxamide] reads 3.2 nM.
As to `O=C(NC1(c2ccc(F)cc2)CNC1)c1nn2cc(-c3ccc4ccccc4c3)[nH]c(=O)c2c1C(F)(F)F` [Example 1-125, N-[3-(4-Fluorophenyflazetidin-3-yl]-6-(naphthalen-2-yl)-4-oxo-3-(trifluoromethyl)-4,5-dihydropyrazolo[1,5-a]pyrazine-2-carboxamide hydrochloride], the IC50 was determined as 3.35 nM.
The result for `CCN1CC(NC(=O)c2nn3cc(-c4ccc5ccccc5c4)[nH]c(=O)c3c2C(F)(F)F)(c2ccc(F)cc2)C1` [Example 1-126, N-[1-Ethyl-3-(4-fluorophenyl)azetidin-3-yl]-6-(naphthalen-2-yl)-4-oxo-3-(trifluoromethyl)-4,5-dihydropyrazolo[1,5-a]pyrazine-2-carboxamide] reads 5.1 nM.
Under `CCCN1CC(NC(=O)c2nn3cc(-c4ccc5ccccc5c4)[nH]c(=O)c3c2C(F)(F)F)(c2ccc(F)cc2)C1` [Example 1-127, N-[3-(4-Fluorophenyl)-1-propylazetidin-3-yl]-6-(naphthalen-2-yl)-4-oxo-3-(trifluoromethyl)-4,5-dihydropyrazolo[1,5-a]pyrazine-2-carboxamide] stands 2.15 nM.
Under `CC(C)CN1CC(NC(=O)c2nn3cc(-c4ccc5ccccc5c4)[nH]c(=O)c3c2C(F)(F)F)(c2ccc(F)cc2)C1` [Example 1-128, N-[3-(4-Fluorophenyl)-1-(2-methylpropyl)azetidin-3-yl]-6-(naphthalen-2-yl)-4-oxo-3-(trifluoromethyl)-4,5-dihydropyrazolo[1,5-a]pyrazine-2-carboxamide] stands 2.9 nM.
